Measured values reported in US20250051337A1 (priority 2021, published 2025).

Experiments:
[1] = biological target: T1, STK4 (Homo sapiens (Human), UniProt Q13043); experiment: ADP-Glo kinase assay, STK4; assay type: biochemical
Procedure, shortened: (§1)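 ADP-Glo readout at 50 μM ATP with 50 ng full-length enzyme: STK4 on 300 μg/mL Axltide substrate, STK3 on 250 μg/mL myelin basic protein. Done as three independent runs in triplicate.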

[2] = biological target: T2, STK3 (Homo sapiens (Human), UniProt Q13188); experiment: ADP-Glo kinase assay, STK3; assay type: biochemical; details: ADP-Glo, 50 μM ATP; read-out: STK3 IC50
T2 sequence (Q13188 whole entry): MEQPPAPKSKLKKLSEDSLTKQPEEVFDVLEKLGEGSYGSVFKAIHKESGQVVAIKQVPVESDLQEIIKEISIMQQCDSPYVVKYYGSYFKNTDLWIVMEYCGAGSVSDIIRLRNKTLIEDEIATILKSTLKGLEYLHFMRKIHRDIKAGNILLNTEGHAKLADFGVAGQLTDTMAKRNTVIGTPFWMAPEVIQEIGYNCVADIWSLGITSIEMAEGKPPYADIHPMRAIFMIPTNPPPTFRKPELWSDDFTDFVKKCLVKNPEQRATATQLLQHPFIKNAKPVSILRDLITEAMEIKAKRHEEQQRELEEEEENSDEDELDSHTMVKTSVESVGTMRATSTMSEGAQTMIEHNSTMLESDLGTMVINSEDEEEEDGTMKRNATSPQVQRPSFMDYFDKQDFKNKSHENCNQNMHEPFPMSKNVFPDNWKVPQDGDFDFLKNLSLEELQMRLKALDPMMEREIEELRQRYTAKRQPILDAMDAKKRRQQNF
Procedure, shortened: as §1

[3] = system: phosphorylated MOB1 (Thr35) in HEK293 cells; experiment: Western blot analysis of p-MOB1 in HEK293 cells; assay type: cell-based; details: 10 μM, 4 h, then H2O2 50 μM 2 h, vs DMSO
Description: Cells were harvested by pipetting, pelleted by centrifugation at 1400 rpm for 4 min, and lysed in RIPA buffer for 10 min at room temperature. The lysates were centrifuged at 12,000×g at room temperature (RT) for 10 min and the supernatants were recovered. Protein concentrations in the supernatants were determined using a BCA assay (Pierce/Thermo Scientific). Proteins were separated on NovexTM WedgeWellTM 4-20% Tris-Glycine Gels (Invitrogen; Carlsbad, CA, USA) and transferred to polyvinylidene difluoride (Trans-Blot® TurboTM Transfer Pack) membranes. […] Danvers. MA. USA). Blots were rinsed three times with TBST and then incubated in 5% nonfat milk containing horseradish peroxidase (HRP)-conjugated mouse anti-rabbit IgG secondary Ab (Cell Signaling Technology) for 1 h at RT. Blots were washed three times with TBST, developed using Pierce® ECL Western Blotting reagent, and imaged and analyzed using with ImageJ software. Quantitative data are expressed as the level of phosphorylated MOB1 normalized to total MOB1. To confirm that the cellular mechanism of action of our inhibitors was through inhibition of Hippo pathway signaling. […] Inhibition of STK3/4 in vitro and in vivo can produce decreased phosphorylation of the Hippo pathway adapter protein MOB1 at […].

[4] = biological target: T2, STK3; experiment: NanoBRET intracellular kinase assay, STK3; assay type: cell-based
Description: (§2) Full-length STK3, STK4, and LRRK2 kinase was cloned in-frame with a C-terminal NanoLuc-fusion (Promega: Madison, WI, USA) and the plasmid was transfected into HEK293T cells using FuGENE HD (Promega, E2312). […] After 2 h at 37° C. in a 5% CO2 atmosphere, NanoBRET NanoGlo Substrate+Extra-cellular NanoLuc Inhibitor (Promega, N2540) was added, and filtered luminescence was measured on a PHERAstar plate reader (BMG Labtech; Ortenberg, Germany) equipped with a lumi-nescence filter pair (450 nm BP filter (donor) and 610 nm LP filter (acceptor)).
(§3) This assay measured the apparent affinity of test compounds by competitive displacement of the NanoBRET™ tracer, reversibly bound to a NanoLuc® luciferase-kinase fusion in cells. To evaluate potential off-target activity of the inhibitors, the inhibition of LRRK2 in live cells by the STK3/4 inhibitors compounds described herein were measured. […] A 50 nM tracer and these compounds were added to cells and incubated for 2 h.

[5] = biological target: LRRK2 (Homo sapiens (Human), UniProt Q5S007); experiment: NanoBRET intracellular kinase assay, LRRK2; assay type: cell-based; details: transfected HEK293 cells, 2 h
Chain of LRRK2 (Q5S007 whole entry, species assumed, the tested form may be a part): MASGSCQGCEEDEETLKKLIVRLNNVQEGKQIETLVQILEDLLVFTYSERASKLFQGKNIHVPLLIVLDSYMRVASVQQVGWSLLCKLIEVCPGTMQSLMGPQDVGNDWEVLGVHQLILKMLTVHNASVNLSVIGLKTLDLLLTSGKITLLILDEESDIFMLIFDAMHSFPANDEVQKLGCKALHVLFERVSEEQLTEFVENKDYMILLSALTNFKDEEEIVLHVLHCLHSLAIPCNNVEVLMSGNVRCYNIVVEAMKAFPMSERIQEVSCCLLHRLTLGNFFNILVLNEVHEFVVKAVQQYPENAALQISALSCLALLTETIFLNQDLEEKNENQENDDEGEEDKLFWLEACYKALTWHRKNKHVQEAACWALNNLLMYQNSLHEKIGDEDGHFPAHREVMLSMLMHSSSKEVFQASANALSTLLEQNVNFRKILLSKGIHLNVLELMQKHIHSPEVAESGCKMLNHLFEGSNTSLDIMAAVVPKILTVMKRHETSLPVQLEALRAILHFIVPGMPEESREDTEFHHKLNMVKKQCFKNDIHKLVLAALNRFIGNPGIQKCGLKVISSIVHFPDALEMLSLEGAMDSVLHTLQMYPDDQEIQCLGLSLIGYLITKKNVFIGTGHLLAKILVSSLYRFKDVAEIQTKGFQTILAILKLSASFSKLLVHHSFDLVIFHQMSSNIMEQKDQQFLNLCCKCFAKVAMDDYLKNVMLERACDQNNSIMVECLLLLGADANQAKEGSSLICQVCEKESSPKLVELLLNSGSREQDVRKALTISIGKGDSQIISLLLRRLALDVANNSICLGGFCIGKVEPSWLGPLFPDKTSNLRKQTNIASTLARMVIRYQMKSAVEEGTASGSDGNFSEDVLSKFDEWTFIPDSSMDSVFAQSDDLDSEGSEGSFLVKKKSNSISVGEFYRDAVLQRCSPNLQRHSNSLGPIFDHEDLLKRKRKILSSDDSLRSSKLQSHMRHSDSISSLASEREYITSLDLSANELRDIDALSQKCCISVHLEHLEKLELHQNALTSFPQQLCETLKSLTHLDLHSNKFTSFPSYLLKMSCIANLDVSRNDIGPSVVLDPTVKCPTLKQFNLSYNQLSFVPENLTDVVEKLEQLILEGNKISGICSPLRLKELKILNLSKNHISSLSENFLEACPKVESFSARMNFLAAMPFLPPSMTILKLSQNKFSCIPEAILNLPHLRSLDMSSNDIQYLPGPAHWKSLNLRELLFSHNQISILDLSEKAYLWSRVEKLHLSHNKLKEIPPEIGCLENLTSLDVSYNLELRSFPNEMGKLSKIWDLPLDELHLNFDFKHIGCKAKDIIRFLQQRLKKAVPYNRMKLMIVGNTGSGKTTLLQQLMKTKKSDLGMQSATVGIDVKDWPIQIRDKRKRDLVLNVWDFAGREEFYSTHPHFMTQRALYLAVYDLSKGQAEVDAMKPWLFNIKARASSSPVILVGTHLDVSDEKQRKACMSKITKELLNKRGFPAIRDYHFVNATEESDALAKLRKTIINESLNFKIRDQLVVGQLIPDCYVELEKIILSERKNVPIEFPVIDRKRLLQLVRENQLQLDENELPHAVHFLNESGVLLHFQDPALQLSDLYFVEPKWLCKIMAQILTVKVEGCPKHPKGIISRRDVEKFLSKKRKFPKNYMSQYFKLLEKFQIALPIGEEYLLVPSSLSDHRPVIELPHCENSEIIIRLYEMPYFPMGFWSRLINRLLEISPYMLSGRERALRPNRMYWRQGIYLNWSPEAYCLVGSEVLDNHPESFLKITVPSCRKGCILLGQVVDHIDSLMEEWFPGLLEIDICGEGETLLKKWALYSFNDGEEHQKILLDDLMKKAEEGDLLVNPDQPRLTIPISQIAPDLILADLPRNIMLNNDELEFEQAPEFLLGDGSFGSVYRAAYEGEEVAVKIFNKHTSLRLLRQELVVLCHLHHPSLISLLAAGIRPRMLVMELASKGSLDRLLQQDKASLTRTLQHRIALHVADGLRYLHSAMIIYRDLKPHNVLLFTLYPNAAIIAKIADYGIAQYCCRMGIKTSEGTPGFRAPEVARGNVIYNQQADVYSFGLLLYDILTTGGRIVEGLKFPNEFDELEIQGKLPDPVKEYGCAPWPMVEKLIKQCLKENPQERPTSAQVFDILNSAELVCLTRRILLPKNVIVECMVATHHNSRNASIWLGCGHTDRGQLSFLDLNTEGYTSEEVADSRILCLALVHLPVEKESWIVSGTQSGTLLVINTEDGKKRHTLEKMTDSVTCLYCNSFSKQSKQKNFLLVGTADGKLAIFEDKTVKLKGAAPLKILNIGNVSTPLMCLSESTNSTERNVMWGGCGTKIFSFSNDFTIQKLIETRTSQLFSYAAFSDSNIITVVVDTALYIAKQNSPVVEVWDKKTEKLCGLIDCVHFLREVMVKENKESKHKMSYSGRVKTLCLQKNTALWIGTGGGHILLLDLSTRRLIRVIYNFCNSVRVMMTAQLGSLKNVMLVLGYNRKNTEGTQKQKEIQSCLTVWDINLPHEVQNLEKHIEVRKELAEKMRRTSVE
Description: Full-length STK3, STK4, and LRRK2 kinase was cloned in-frame with a C-terminal NanoLuc-fusion (Promega: Madison, WI, USA) and the plasmid was transfected into HEK293T cells using FuGENE HD (Promega, E2312). After 20 h, transfected cells were mixed with inhibitors and 50 nM NanoBRET Kinase Tracer K10 (Promega) and reseeded at a density of 2× 10^5 cells/mL in Opti-Minimal Essential Medium (MEM) without phenol red (Life Technologies; Carlsbad, CA, USA) in 384-well plates (Greiner 781-207; Kremsmunster, Austria). After 2 h at 37° C. in a 5% CO2 atmosphere, NanoBRET NanoGlo Substrate+Extra-cellular NanoLuc Inhibitor (Promega, N2540) was added, and filtered luminescence was measured on a PHERAstar plate reader (BMG Labtech; Ortenberg, Germany) equipped with a lumi-nescence filter pair (450 nm BP filter (donor) and 610 nm LP filter (acceptor)).
To confirm cellular potency for compounds described herein, the […] were used to detect engagement of STK3 and STK4 in live cells using the NanoBRET™ intracellular kinase assay, marking the first report of a NanoBRET assay for STK3 and STK4. This assay measured the apparent affinity of test compounds by competitive displacement of the NanoBRET™ tracer, reversibly bound to a NanoLuc® luciferase-kinase fusion in cells. To evaluate potential off-target activity of the inhibitors, the inhibition of LRRK2 in live cells by the STK3/4 inhibitors compounds described herein were measured. Cultured HEK293 cells were either transfected with NanoLuc®-STK3 fusion vector, NanoLuc®-STK4 fusion, or with NanoLuc®-LRRK2 vector for 24 h. A 50 nM tracer and these compounds were added to cells and incubated for 2 h. These compounds tested in the assays decreased the NanoBRET™ signal for both STK3 and STK4 at varying potencies and confirming cellular target engagement of STK3/4.

[6] = In vivo plasma and liver concentrations, 20 mg/kg intraperitoneal; details: female, C57BL/6J, mouse, ip, 20 mg/kg
Description: All animal procedures were approved by the Sanford Burnham Prebys Medical Discovery Institute Institutional Animal Care and Use Committee and were performed according to the NIH guidelines for the Care and Use of Laboratory Animals. Adult female C57BL/6J mice were purchased from Jackson Laboratories and housed with free access to food and water on a 12 h light/dark cycle. Compounds were formulated in 5% DMSO, 10% Tween-80, and 85% H2O and injected intraperitoneally at 10 or 20 mg/kg. Blood samples were collected retro-orbitally at the indicated times and plasma was prepared by centrifugation. Livers were collected post mortem at the indicated times.
For quantification of compound, plasma samples were extracted with acetonitrile: water 4:1 with 0.1% formic acid containing indomethacin as an internal standard. Samples were centrifuged and the supernatants were diluted with acetonitrile: water and analyzed by LC-MS/MS using a Shimadzu Nexera X2 High-performance liquid chromatography (HPLC) (Shimadzu Scientific Instruments: Kyoto, Japan) coupled to an AB Sciex 6500 QTRAP (AB Sciex LLC: Toronto, Canada).
Adult female C57BL/6 mice (n=3/group) were intraperitoneally injected with vehicle or test compound (20 mg/kg), and blood samples and livers were collected at 30 min and 1 h post-injection, respectively. Plasma concentrations of all 13 compounds were >1.4 μM at 30 min after injection, and 10 compounds had liver concentrations >1.0 μM at 1 h after injection, as measured by LC-MS/MS, with particularly high plasma concentrations obtained with compounds 11 (15.9 μM), 16 (11.6 μM) and 105 (8.7 μM) (Table 5). To evaluate target engagement in vivo, the total and phosphorylated MOB1 levels in livers collected at 1 h post-injection was examined.
Tween 80 and water and were administered to mice by intraperitoneal injection. Blood samples and livers were collected at 30 min and 1 h post-dose, respectively. Plasma concentrations and relative pMOB1 levels were determined by LC-MS/MS and western blot analysis, respectively. (n=3).

[7] = biological target: T2, STK3; experiment: Thermal shift assay (ThermoFluor differential scanning fluorimetry); assay type: binding; details: read-out: ΔTm
Description: Temperature-dependent protein unfolding profiles were measured using a Real-Time PCR Mx3005p machine (Stratagene: San Diego, CA, USA). Data evaluation and melting temperature calculation were performed using Protein Thermal Shift™ Software v1.2.
To further evaluate binding of these compounds to STK3/4, differential scanning fluorimetry (protein thermal shift using ThermoFluor technology) assay was used to benchmark the capacity to stabilize the kinase domain. The melting temperature (Tm) of STK3 or STK4 was measured in the presence of vehicle (DMSO) or 6, 11 or 23.

[8] = system: YAP/TAZ-TEAD activity (8×GTIIC-luciferase) in HEK293 cells; experiment: YAP-TAZ-TEAD luciferase assay; assay type: cell-based; details: 10 μM, 48 h, vs DMSO
Description: 8×GTIIC-luciferase was a gift from Stefano Piccolo (Addgene plasmid #34615, http://n2t.net/addgene: 34615: RRID: Addgene_34615). HEK293 cells were transfected with 8×GTIIC-luciferase plasmid and control Renilla luciferase plasmid using jetPRIME transfection reagent (Polyplus-transfection RSA: New York, NY. USA) for 24 h and cultured in Dulbeco's Modified Eagle Media (DMEM) Glutamax supplemented with 10% Fetal Bovine Serum (FBS), antibiotic/antimycotic, and sodium pyruvate (Gibco. Thermo FisherScientific: Waltham. MA. USA). The transfected cells were treated with 10 μM compound in triplicate and incubated for 48 h at 37° C. Firefly and Renilla luminescence were detected with a Dual-Glo Luciferase Assay System (Promega #E2920) according to the manufacturer's recommendations. The ratio of firefly to Renilla luminescence was calculated for each well and normalized to the ratio in control cells incubated with DMSO.
STK3/4 can negatively regulate the activity of the YAP/TAZ-TEAD protein complex and, accordingly, inactivation of these kinases reduces the transcription of YAP/TAZ-TEAD target genes. […] The results confirmed the intracellular on-target activity of our potent compounds for inhibiting STK3 and STK4 activity and targeting gene expression in the Hippo signaling pathway.

[9] = biological target: T1, STK4; experiment: NanoBRET intracellular kinase assay, STK4; assay type: cell-based; details: transfected HEK293 cells, 2 h
Description: as §2, §3

[10] = system: ULK1/2 and Aurora kinases; details: including inhibition of ULK1/2 and Aurora kinases; cited from earlier work
[11] = NanoBRET, transfected HEK293 cells, 2 h, read-out: STK3: IC50
[12] = ADP-Glo, 50 μM ATP, read-out: STK4 IC50

T1 sequence (Q13043 whole entry): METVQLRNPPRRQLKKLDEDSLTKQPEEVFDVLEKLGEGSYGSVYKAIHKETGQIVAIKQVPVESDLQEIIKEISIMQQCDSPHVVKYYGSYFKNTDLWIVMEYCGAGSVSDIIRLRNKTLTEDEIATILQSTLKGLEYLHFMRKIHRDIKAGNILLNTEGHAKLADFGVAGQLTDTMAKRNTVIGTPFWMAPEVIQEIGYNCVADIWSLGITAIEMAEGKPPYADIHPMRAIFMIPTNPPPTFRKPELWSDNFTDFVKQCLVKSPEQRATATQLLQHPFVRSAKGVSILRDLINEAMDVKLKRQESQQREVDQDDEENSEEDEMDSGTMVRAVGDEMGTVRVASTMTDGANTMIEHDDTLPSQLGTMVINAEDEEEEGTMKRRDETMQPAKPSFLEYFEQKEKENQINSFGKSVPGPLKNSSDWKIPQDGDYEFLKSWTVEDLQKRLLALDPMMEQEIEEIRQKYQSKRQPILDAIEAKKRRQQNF

| SMILES | IC50 [1] [nM] | IC50 [2] [nM] | relative expression level of phosphorylated MOB1 [3] | IC50 [4, 11] [nM] | IC50 [5] [nM] | concentration at 30 min [6] [µM] | concentration at 1 h [6] [µM] | ΔTm at 10 µM [7] [°C] | YAP/TAZ-TEAD activity (luciferase reporter) [8] | IC50 [4] [nM] | LRRK2: IC50 [5] | IC50 [1, 12] [nM] | IC50 [9] [nM] | off-target activity in vitro [10] |
| --- | --- | --- | --- | --- | --- | --- | --- | --- | --- | --- | --- | --- | --- | --- |
| Cc1ccccc1-c1c[nH]c2ncnc(N3CCOCC3)c12 [Compound 2, 4-(5-(o-Tolyl)-7H-pyrrolo[2,3-d]pyrimidin-4-yl)morpholine] | 1000 to 5000 | > 5000 | significant reduction |  |  |  |  |  |  |  |  |  |  |  |
| Cc1cccc(-c2c[nH]c3ncnc(N4CCOCC4)c23)c1 [Compound 5, 4-(5-(m-Tolyl)-7H-pyrrolo[2,3-d]pyrimidin-4-yl)morpholine] |  | < 1000 |  | < 1000 | ≤ 1000 | 2.8 | 7.3 |  |  |  |  |  |  |  |
| Fc1cccc(-c2c[nH]c3ncnc(N4CCOCC4)c23)c1 [Compound 7, 4-(5-(3-Fluorophenyl)-7H-pyrrolo[2,3-d]pyrimidin-4-yl)morpholine] |  | < 1000 |  | < 1000 | ≤ 1000 | 6 | 14.9 | 8.4 | marked increase |  |  |  |  |  |
| Clc1cccc(-c2c[nH]c3ncnc(N4CCCCC4)c23)c1 [Compound 15, 5-(3-Chlorophenyl)-4-(piperidin-1-yl)-7H-pyrrolo[2,3-d]pyrimidine] |  | < 1000 |  |  |  | 3.7 | 6.5 | 8.3 |  | 1000 to 5000 | B (B: IC50 is >2000 nM and <1000 nM) |  |  |  |
| CC1(N)CCN(c2ncnc3[nH]cc(-c4cccc(Cl)c4)c23)CC1 [Compound 102, 1-(5-(3-chlorophenyl)-7H-pyrrolo[2,3-d]pyrimidin-4-yl)-4-methylpiperidin-4-amine] |  | < 1000 |  |  |  | 1.4 | 15.9 |  |  |  |  |  |  |  |
| CNC1CCN(c2ncnc3[nH]cc(-c4cccc(Cl)c4)c23)CC1 [Compound 106, 1-(5-(3-chlorophenyl)-7H-pyrrolo[2,3-d]pyrimidin-4-yl)-N-methylpiperidin-4-amine] |  |  |  |  | ≥ 2000 | 2.2 | 7.8 |  |  |  |  |  |  |  |
| CN(CCO)c1ncnc2[nH]cc(-c3cccc(Cl)c3)c12 [Compound 108, 2-((5-(3-chlorophenyl)-7H-pyrrolo[2,3-d]pyrimidin-4-yl)(methyl)amino)ethan-1-ol] |  | < 1000 | significant reduction | < 1000 |  | 7.3 | 0.9 |  |  |  | B (B: IC50 is >2000 nM and <1000 nM) | < 1000 | < 1000 |  |
| OCCCNc1ncnc2[nH]cc(-c3cccc(Cl)c3)c12 [Compound 119, 3-((5-(3-chlorophenyl)-7H-pyrrolo[2,3-d]pyrimidin-4-yl)amino)propan-1-ol] |  | < 1000 |  | < 1000 | ≥ 2000 | 4.5 | 0.003 |  |  |  |  |  |  |  |
| CC(CO)CN(C)c1ncnc2[nH]cc(-c3cccc(Cl)c3)c12 (stereo not shown) [Compound 121, 3-((5-(3-chlorophenyl)-7H-pyrrolo[2,3-d]pyrimidin-4-yl)(methyl)amino)-2-methylpropan-1-ol] |  | < 1000 | significant reduction | < 1000 | ≥ 2000 | 1.8 | 0.006 |  |  |  |  | < 1000 | < 1000 |  |
| CN1C(=O)c2sccc2N(C)c2nc(Nc3ccc(S(N)(=O)=O)cc3)ncc21 [XMU-MP-1] |  |  |  |  |  |  |  |  |  |  |  |  |  | notable off-target activity |
